Experimental findings from PMC3409115, “Diverse Inhibitor Chemotypes Targeting Trypanosoma cruzi CYP51” (PLoS Neglected Tropical Diseases, 2012) are described below.

A word on the EC50: it is the concentration that produces a half-maximal response.

This assay relates to T. cruzi-infected skeletal myoblasts (intracellular amastigotes). Description: Hit cross-validation in T. cruzi-infected mammalian cells (image-based assay). Type of assay: cell-based, Trypanosoma cruzi. The note with it: for Intracellular amastigotes in DAPI images after 72 h treatment: Compound 1 at 0.123 µM and 10 µM, Compound 13 at 10 µM; for EC50: Trypanosoma cruzi, Myoblast.

Where two headings read alike, the source gives them in different places.

Take `O=C(c1ccc(Cl)cc1)C(Oc1ccc(Cl)cc1)n1cncn1` (stereo not drawn) [Compound 13, 2-(4-chlorophenoxy)-1-(4-chlorophenyl)-2-(1H-1,2,4-triazol-1-yl)ethanone]: the “Intracellular amastigotes in DAPI images after 72 h treatment” value is listed as “elimination of intracellular amastigotes”. Also, the EC50 (72 h, T. cruzi-infected myoblasts, 72 h treatment, repurchased compound, read-out: EC50 averaged from two independent cross-validation assays for individually repurchased hits) is 1300 nM. For the same compound, the EC50 (72 h, T. cruzi-infected myoblasts, 72 h treatment, read-out: EC50 against T. cruzi parasites in HTS assay used to rank order the hits) stood at 1310 nM.

On to `Brc1ccccc1OCCCCCCn1ccnc1` [Compound 1], for which the “Intracellular amastigotes in DAPI images after 72 h treatment” value is recorded as “elimination of intracellular amastigotes”. For the setting “72 h, T. cruzi-infected myoblasts, 72 h treatment, read-out: EC50 in image-based HTS cross-validation assay”, the EC50 was determined as 70 nM. Moreover, the EC50 (in Mus musculus, T. cruzi amastigotes cultured in mouse myoblasts, averaged from two independent assays, read-out: EC50 in low throughput validation (repurchased hit)) was 17 nM.
